{"source": "patent US10227323B2", "about": "“Glucosylceramide synthase inhibitors for the treatment of diseases” (BIOMARIN PHARMACEUTICAL INC., priority 2013, dated 2019)", "data": [{"biological_target": "T1, GCS (Canis lupus familiaris, UniProt A0A8I3MXG6)", "T1 sequence (A0A8I3MXG6 1-394)": "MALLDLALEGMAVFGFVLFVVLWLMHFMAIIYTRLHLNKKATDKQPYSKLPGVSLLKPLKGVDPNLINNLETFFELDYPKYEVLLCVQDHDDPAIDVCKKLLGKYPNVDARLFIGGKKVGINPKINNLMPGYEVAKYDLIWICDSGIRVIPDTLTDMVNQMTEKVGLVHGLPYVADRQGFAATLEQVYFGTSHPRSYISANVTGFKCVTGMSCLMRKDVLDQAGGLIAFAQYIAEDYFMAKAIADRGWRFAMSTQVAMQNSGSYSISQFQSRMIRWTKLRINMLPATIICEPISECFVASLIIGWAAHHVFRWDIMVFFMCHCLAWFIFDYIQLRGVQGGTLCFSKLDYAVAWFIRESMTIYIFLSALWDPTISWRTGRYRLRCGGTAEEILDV", "experiment": "Assay 1: GCS Enzymatic Assay (MDCK cell lysate, C6-NBD-Ceramide, LC/MS)", "assay_type": "biochemical, canine", "conditions": "Table 2; data marked by *", "method_in_brief": "(§1)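 LC/MS/MS measurement of glucosylceramide and NBD-ceramide after a 1 h, 37 °C reaction with 100 μM UDP-glucose and 10 μM C6-NBD-ceramide gave IC50s or percent inhibition.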", "values": [{"smiles": "O=C(N[C@H](CN1CCCC1)[C@H](O)c1cnc2c(c1)OCCO2)C(F)(F)c1cc2cc(Cl)ccc2o1", "note": "[Compound 185, 2-(5-chlorobenzofuran-2-yl)-N-((1R,2R)-1-(2,3-dihydro-[1,4]dioxino[2,3-b]pyridin-7-yl)-1-hydroxy-3-(pyrrolidin-1-yl)propan-2-yl)-2,2-difluoroacetamide]", "% inhibition generated from Assay 1": "B* (the compound had a % inhibition of greater than or equal to about 3% but less than about 50%)"}, {"smiles": "O=C(N[C@H](CN1CCCC1)[C@H](O)c1ccc2c(c1)OCCO2)C(F)(F)c1ccc(-c2ccccn2)cc1", "note": "[Compound 186, N-((1R,2R)-1-(2,3-dihydrobenzo[b][1,4]dioxin-6-yl)-1-hydroxy-3-(pyrrolidin-1-yl)propan-2-yl)-2,2-difluoro-2-(4-(pyridin-2-yl)phenyl)acetamide]", "% inhibition generated from Assay 1": "A* (the compound had a % inhibition of a percent inhibition of greater than or equal to about 50%)"}, {"smiles": "O=C(N[C@H](CN1CCC1)[C@H](O)c1cc(F)c2c(c1)OCCO2)C(=O)c1ccc2cc(Cl)ccc2c1", "note": "[Compound 188, N-((1R,2R)-3-(azetidin-1-yl)-1-(8-fluoro-2,3-dihydrobenzo[b][1,4]dioxin-6-yl)-1-hydroxypropan-2-yl)-2-(6-chloronaphthalen-2-yl)-2-oxoacetamide]", "% inhibition generated from Assay 1": "A* (the compound had a % inhibition of a percent inhibition of greater than or equal to about 50%)"}, {"smiles": "O=C(N[C@H](CN1CCCC1)[C@H](O)c1ccc2c(c1)OCCO2)C(=O)c1ccc(-c2ccc(F)cn2)cc1", "note": "[Compound 189, N-((1R,2R)-1-(2,3-dihydrobenzo[b][1,4]dioxin-6-yl)-1-hydroxy-3-(pyrrolidin-1-yl)propan-2-yl)-2-(4-(5-fluoropyridin-2-yl)phenyl)-2-oxoacetamide]", "% inhibition generated from Assay 1": "A* (the compound had a % inhibition of a percent inhibition of greater than or equal to about 50%)"}, {"smiles": "O=C(N[C@H](CN1CCCC1)[C@H](O)c1ccc2c(c1)OCCO2)/C(=N/O)c1ccc(-c2ccc(F)cn2)cc1", "note": "[Compound 190, (E)-N-((1R,2R)-1-(2,3-dihydrobenzo[b][1,4]dioxin-6-yl)-1-hydroxy-3-(pyrrolidin-1-yl)propan-2-yl)-2-(4-(5-fluoropyridin-2-yl)phenyl)-2-(hydroxyimino)acetamide]", "% inhibition generated from Assay 1": "A* (the compound had a % inhibition of a percent inhibition of greater than or equal to about 50%)"}, {"smiles": "CC(C)(O)COc1ccc([C@@H](O)[C@@H](CN2CCCC2)NC(=O)C(F)(F)C2Cc3ccc(Cl)cc3C2)cc1Cl", "note": "(stereo partly drawn) [Compound 192, 2-(5-chloro-2,3-dihydro-1H-inden-2-yl)-N-((1R,2R)-1-(3-chloro-4-(2-hydroxy-2-methylpropoxy)phenyl)-1-hydroxy-3-(pyrrolidin-1-yl)propan-2-yl)-2,2-difluoroacetamide]", "% inhibition generated from Assay 1": "A* (the compound had a % inhibition of a percent inhibition of greater than or equal to about 50%)"}, {"smiles": "O=C(N[C@H](CN1CCCC1)[C@H](O)c1ccc2c(c1)OCCO2)C(=O)c1ccc(-c2ccccn2)cc1", "note": "[Compound 195, N-((1R,2R)-1-(2,3-dihydrobenzo[b][1,4]dioxin-6-yl)-1-hydroxy-3-(pyrrolidin-1-yl)propan-2-yl)-2-oxo-2-(4-(pyridin-2-yl)phenyl)acetamide]", "% inhibition generated from Assay 1": "A* (the compound had a % inhibition of a percent inhibition of greater than or equal to about 50%)"}, {"smiles": "O=C(N[C@H](CN1CCCC1)[C@H](O)c1cc(F)c2c(c1)OCCO2)C(F)(F)c1cn2ccccc2n1", "note": "[Compound 196, 2,2-difluoro-N-((1R,2R)-1-(8-fluoro-2,3-dihydrobenzo[b][1,4]dioxin-6-yl)-1-hydroxy-3-(pyrrolidin-1-yl)propan-2-yl)-2-(imidazo[1,2-a]pyridin-2-yl)acetamide]", "% inhibition generated from Assay 1": "B* (the compound had a % inhibition of greater than or equal to about 3% but less than about 50%)"}, {"smiles": "CN1CCCc2cc(CCC(F)(F)C(=O)N[C@H](CN3CCCC3)[C@H](O)c3ccc4c(c3)OCCO4)ccc21", "note": "[Compound 198, N-((1R,2R)-1-(2,3-dihydrobenzo[b][1,4]dioxin-6-yl)-1-hydroxy-3-(pyrrolidin-1-yl)propan-2-yl)-2,2-difluoro-4-(1-methyl-1,2,3,4-tetrahydroquinolin-6-yl)butanamide]", "% inhibition generated from Assay 1": "A* (the compound had a % inhibition of a percent inhibition of greater than or equal to about 50%)"}, {"smiles": "O=C(N[C@H](CN1CCCC1)[C@H](O)c1ccc(OC2CC2)c(Cl)c1)C(F)(F)c1cn2ccccc2n1", "note": "[Compound 199, N-((1R,2R)-1-(3-chloro-4-cyclopropoxyphenyl)-1-hydroxy-3-(pyrrolidin-1-yl)propan-2-yl)-2,2-difluoro-2-(imidazo[1,2-a]pyridin-2-yl)acetamide]", "% inhibition generated from Assay 1": "B* (the compound had a % inhibition of greater than or equal to about 3% but less than about 50%)"}, {"smiles": "O=C(N[C@H](CN1CCCC1)[C@H](O)c1ccc2c(c1)OCCO2)C(F)(F)c1cccc(Oc2ccc(F)cc2)c1", "note": "[Compound 201, N-((1R,2R)-1-(2,3-dihydrobenzo[b][1,4]dioxin-6-yl)-1-hydroxy-3-(pyrrolidin-1-yl)propan-2-yl)-2,2-difluoro-2-(3-(4-fluorophenoxy)phenyl)acetamide]", "% inhibition generated from Assay 1": "A* (the compound had a % inhibition of a percent inhibition of greater than or equal to about 50%)"}]}, {"biological_target": "T1, GCS", "experiment": "Assay 1: GCS Enzymatic Assay (MDCK cell lysate, C6-NBD-Ceramide, LC/MS)", "assay_type": "biochemical, canine", "conditions": "Table 2; data without asterisk; read-out: IC50 (nM) generated from Assay 1", "method_in_brief": "as §1", "units": {"IC50": "nM"}, "values": [{"smiles": "O=C(N[C@H](CN1CCCC1)[C@H](O)c1cc(F)c2c(c1)OCCO2)C(F)(F)c1ccc(-c2ccccn2)cc1", "note": "[Compound 187, 2,2-difluoro-N-((1R,2R)-1-(8-fluoro-2,3-dihydrobenzo[b][1,4]dioxin-6-yl)-1-hydroxy-3-(pyrrolidin-1-yl)propan-2-yl)-2-(4-(pyridin-2-yl)phenyl)acetamide]", "IC50": "< 50"}, {"smiles": "O=C(N[C@H](CN1CCC1)[C@H](O)c1cc(F)c2c(c1)OCCO2)/C(=N/O)c1ccc2cc(Cl)ccc2c1", "note": "[Compound 191, (E)-N-((1R,2R)-3-(azetidin-1-yl)-1-(8-fluoro-2,3-dihydrobenzo[b][1,4]dioxin-6-yl)-1-hydroxypropan-2-yl)-2-(6-chloronaphthalen-2-yl)-2-(hydroxyimino)acetamide]", "IC50": "< 50"}, {"smiles": "CC(C)(O)COc1ccc([C@@H](O)[C@@H](CN2CCCC2)NC(=O)C(=O)c2ccc(-c3ccc(F)cc3)cc2)cc1Cl", "note": "[Compound 194, N-((1R,2R)-1-(3-chloro-4-(2-hydroxy-2-methylpropoxy)phenyl)-1-hydroxy-3-(pyrrolidin-1-yl)propan-2-yl)-2-(4′-fluoro-[1,1′-biphenyl]-4-yl)-2-oxoacetamide]", "IC50": "< 50"}, {"smiles": "O=C(N[C@H](CN1CCCC1)[C@H](O)c1ccc2c(c1)OCCO2)C(=O)c1cccc(Oc2ccc(F)cc2)c1", "note": "[Compound 197, N-((1R,2R)-1-(2,3-dihydrobenzo[b][1,4]dioxin-6-yl)-1-hydroxy-3-(pyrrolidin-1-yl)propan-2-yl)-2-(3-(4-fluorophenoxy)phenyl)-2-oxoacetamide]", "IC50": "< 50"}, {"smiles": "O=C(N[C@H](CN1CCCC1)[C@H](O)c1cc(F)c2c(c1)OCCO2)C(=O)c1ccc(N2CCCCC2)cc1", "note": "[Compound 200, N-((2R)-1-(8-fluoro-2,3-dihydrobenzo[b][1,4]dioxin-6-yl)-1-hydroxy-3-(pyrrolidin-1-yl)propan-2-yl)-2-oxo-2-(4-(piperidin-1-yl)phenyl)acetamide]", "IC50": "< 50"}]}]}
